Patent US20100272680A1, “Piperidinyl Cyclic Amido Antiviral Agents” (priority 2009, published 2010)

Assays:
HCV Genotype 1A Replicon = experiment: Replicon assay, genotype 1a subgenomic replicon, luciferase readout; type: cell-based; conditions: Hepatitis C virus, 48 h, Table 3; luciferase activity after 48 hours
Procedure: (§1) Compounds were assayed for activity against HCV using the genotype 1a and 1b subgenomic replicon model systems. Stable cell lines bearing the genotype 1a and 1b replicons were used for screening of compounds. Both replicons are bicistonic and contain the firefly luciferase gene. The ET cell line is stably transfected with RNA transcripts harboring a I389luc-ubi-neo/NS3-3′/ET replicon with firefly luciferase-ubiquitin-neomycin phosphotransferase fusion protein and EMCV-IRES driven NS3-5B polyprotein containing the cell culture adaptive mutations (E1202G; T12801; K1846T) (Krieger at al, 2001 and unpublished). The genotype 1a replicon is a stable cell line licensed from Apath LLC, modified to contain the firefly luciferase gene. The cells were grown in DMEM, supplemented with 10% fetal calf serum, 2 mM Glutamine, Penicillin (100 IU/mL)/Streptomycin (100 μg/mL), 1× nonessential amino acids, and 250-500 μg/mL G418 (“Geneticin”). They were all available through Life Technologies (Bethesda, Md.). The cells were plated at 0.5×10^4 cells/well in 384 well plates containing compounds. The final concentration of compounds ranged between 0.03 μM to 50 μm and the final DMSO concentration of 0.5-1%.
(§2) Luciferase activity was measured 48 hours later by adding a Steady glo (Promega, Madison, Wis.). Percent inhibition of replication data was plotted relative to no compound control. Under the same condition, cytotoxicity of the compounds was determined using cell titer glo (Promega, Madison, Wis). IC50s were determined from a 10 point dose response curve using 3-4-fold serial dilution for each compound, which spans a concentration range >1000 fold. BioAssay determines the level of inhibition for each compound by normalizing cross-talk corrected plate values against the negative […] controls to determine Percent Inhibition:
(§3) These normalized values are exported to EC50 where they are plotted against the molar compound concentrations using the standard four parameter logistic equation: […]
(§4) Some EC50 measurements were repeated a second time and for both 1A and 1B genotypes after those reported in Table 2 for compounds 101-108 and the repeated data was reported in Table 3.

HCV Genotype 1B Replicon = experiment: Replicon assay, genotype 1b subgenomic replicon (ET cell line), luciferase readout; type: cell-based; conditions: Hepatitis C virus, 48 h, Table 3; luciferase activity after 48 hours
Procedure: as §1, §2, §3, §4

| Compound | EC50 (HCV Genotype 1A Replicon) [nM] | EC50 (HCV Genotype 1B Replicon) [nM] |
| --- | --- | --- |
| O=C(c1nc2c(C(F)(F)F)cc(-n3ccnc3)cn2c1Cl)N1CCC(N2CCOC2=O)CC1 [Compound 139, 3-(1-{[3-chloro-6-(1H-imidazol-1-yl)-8-(trifluoromethyl)imidazo[1,2-a]pyridin-2-yl]carbonyl}-4-piperidinyl)-1,3-oxazolidin-2-one] | 2660 | ≥ 5010 |
| O=C(c1nc2c(C(F)(F)F)cccn2c1Cl)N1CCC(N2CCOC2=O)CC1 [Compound 111, 3-(1-{[3-chloro-8-(trifluoromethyl)imidazo[1,2-a]pyridin-2-yl]carbonyl}-4-piperidinyl)-1,3-oxazolidin-2-one] | ≥ 5010 | 11800 |
| O=C(c1nc2c(C(F)(F)F)cc(C3CC3)cn2c1Cl)N1CCC(N2CCOC2=O)CC1 [Compound 156, 3-(1-{[3-chloro-6-cyclopropyl-8-(trifluoromethyl)imidazo[1,2-a]pyridin-2-yl]carbonyl}-4-piperidinyl)-1,3-oxazolidin-2-one] | 10 | 10 |
| N#Cc1cc(C(F)(F)F)c2nc(C(=O)N3CCC(N4CCOC4=O)CC3)c(Cl)n2c1 [Compound 239, 3-chloro-2-{[4-(2-oxo-1,3-oxazolidin-3-yl)-1-piperidinyl]carbonyl}-8-(trifluoromethyl)imidazo[1,2-a]pyridine-6-carbonitrile] | 800 | 7940 |
| O=C(c1nc2c(C(F)(F)F)cc(-c3ccoc3)cn2c1Cl)N1CCC(N2C(=O)CCC2=O)CC1 [Compound 168, 1-(1-{[3-chloro-6-(3-furanyl)-8-(trifluoromethyl)imidazo[1,2-a]pyridin-2-yl]carbonyl}-4-piperidinyl)-2,5-pyrrolidinedione] | 100 | 70 |
| O=C(c1nc2c(C(F)(F)F)cc(C3CC3)cn2c1Cl)N1CCC(N2C(=O)COC2=O)CC1 [Compound 202, 3-(1-{[3-chloro-6-cyclopropyl-8-(trifluoromethyl)imidazo[1,2-a]pyridin-2-yl]carbonyl}-4-piperidinyl)-1,3-oxazolidine-2,4-dione] | 20 | 10 |
| CO[C@H]1CN(C(=O)c2nc3c(C(F)(F)F)cc(Br)cn3c2Cl)CC[C@@H]1N1CCOC1=O (racemic) [Compound 237, (±) trans-3-[1-{[6-bromo-3-chloro-8-(trifluoromethyl)imidazo[1,2-a]pyridin-2-yl]carbonyl}-3-(methyloxy)-4-piperidinyl]-1,3-oxazolidin-2-one] | ≥ 5010 | ≥ 5010 |
| O=C(c1nc2c(C(F)(F)F)cc(-c3cn[nH]c3)cn2c1Cl)N1CCC(N2CCNC2=O)CC1 [Compound 170, 1-(1-{[3-chloro-6-(1H-pyrazol-4-yl)-8-(trifluoromethyl)imidazo[1,2-a]pyridin-2-yl]carbonyl}-4-piperidinyl)-2-imidazolidinone] | 8810 | 1320 |
| C[C@@H]1CN(C2CCN(C(=O)c3nc4c(C(F)(F)F)cc(-c5ccoc5)cn4c3Cl)CC2)C(=O)O1 [Compound 185, (5R)-3-(1-{[3-chloro-6-(3-furanyl)-8-(trifluoromethyl)imidazo[1,2-a]pyridin-2-yl]carbonyl}-4-piperidinyl)-5-methyl-1,3-oxazolidin-2-one] | 1480 | 1550 |
| CCc1cc(C(F)(F)F)c2nc(C(=O)N3CCC(N4CCOC4=O)CC3)c(Cl)n2c1 [Compound 152, 3-(1-{[3-chloro-6-ethyl-8-(trifluoromethyl)imidazo[1,2-a]pyridin-2-yl]carbonyl}-4-piperidinyl)-1,3-oxazolidin-2-one] | 50 | 70 |
| CC1(C)CC(N2CCOC2=O)CCN1C(=O)c1nc2c(C(F)(F)F)cc(-c3ccoc3)cn2c1Cl (stereo not drawn) [Compound 211, 3-(1-{[3-chloro-6-(3-furanyl)-8-(trifluoromethyl)imidazo[1,2-a]pyridin-2-yl]carbonyl}-2,2-dimethyl-4-piperidinyl)-1,3-oxazolidin-2-one] | 580 | 340 |
| CC1(C)COC(=O)N1C1CCN(C(=O)c2nc3c(C(F)(F)F)cc(-c4cn[nH]c4)cn3c2Cl)CC1 [Compound 177, 3-(1-{[3-chloro-6-(1H-pyrazol-4-yl)-8-(trifluoromethyl)imidazo[1,2-a]pyridin-2-yl]carbonyl}-4-piperidinyl)-4,4-dimethyl-1,3-oxazolidin-2-one] | ≥ 50100 | ≥ 50100 |
| O=C(c1nc2c(C(F)(F)F)cc(-c3ccoc3)cn2c1Cl)N1CC[C@H](N2CCCC2=O)[C@H](O)C1 (racemic) [Compound 230, (±) cis-1-(1-{[3-chloro-6-(3-furanyl)-8-(trifluoromethyl)imidazo[1,2-a]pyridin-2-yl]carbonyl}-3-hydroxy-4-piperidinyl)-2-pyrrolidinone] | 420 | 180 |
| O=C(c1nc2c(C(F)(F)F)cc(-c3ccco3)cn2c1Cl)N1CCC(N2CCOC2=O)CC1 [Compound 146, 3-(1-{[3-chloro-6-(2-furanyl)-8-(trifluoromethyl)imidazo[1,2-a]pyridin-2-yl]carbonyl}-4-piperidinyl)-1,3-oxazolidin-2-one] | 20 | 30 |
| O=C(c1nc2c(C(F)(F)F)cc(-c3cccc4cccnc34)cn2c1Cl)N1CCC(N2CCOC2=O)CC1 [Compound 120] | 290 | 36000 |
| O=C(c1nc2c(C(F)(F)F)cc(I)cn2c1Br)N1CCC(N2CCOC2=O)CC1 [Compound 194, 3-(1-{[3-bromo-6-iodo-8-(trifluoromethyl)imidazo[1,2-a]pyridin-2-yl]carbonyl}-4-piperidinyl)-1,3-oxazolidin-2-one] | 30 | 30 |
| O=C(c1nc2c(C(F)(F)F)cc(C(F)F)cn2c1Cl)N1CCC(N2CCOC2=O)CC1 [Compound 157, 3-(1-{[3-chloro-6-(difluoromethyl)-8-(trifluoromethyl)imidazo[1,2-a]pyridin-2-yl]carbonyl}-4-piperidinyl)-1,3-oxazolidin-2-one] | 20 | 150 |
| O=C(c1nc2c(C(F)(F)F)cc(Br)cn2c1Cl)N1CC[C@H](N2C(=O)COC2=O)[C@@H](O)C1 (racemic) [Compound 222, (±) trans-3-(1-{[6-bromo-3-chloro-8-(trifluoromethyl)imidazo[1,2-a]pyridin-2-yl]carbonyl}-3-hydroxy-4-piperidinyl)-1,3-oxazolidine-2,4-dione] | 940 | 20 |
| O=C1CN(C2CCN(C(=O)c3nc4c(C(F)(F)F)cc(-c5cn[nH]c5)cn4c3Cl)CC2)C(=O)N1 [Compound 172, 1-(1-{[3-chloro-6-(1H-pyrazol-4-yl)-8-(trifluoromethyl)imidazo[1,2-a]pyridin-2-yl]carbonyl}-4-piperidinyl)-2,4-imidazolidinedione] | 3210 | 3760 |
| Cn1cc(-c2cc(C(F)(F)F)c3nc(C(=O)N4CCC(N5CCOC5=O)CC4)c(Cl)n3c2)cn1 [Compound 124] | 30 | 3470 |
| Cc1ccc(-c2cc(C(F)(F)F)c3nc(C(=O)N4CCC(N5CCOC5=O)CC4)c(Cl)n3c2)o1 [Compound 133] | 110 | 3720 |
| COc1cccc(-c2cc(C(F)(F)F)c3nc(C(=O)N4CCC(N5CCOC5=O)CC4)c(Cl)n3c2)c1 [Compound 117] | 470 | 2540 |
| O=C(c1nc2c(C(F)(F)F)cc(-c3ccsc3)cn2c1Cl)N1CCC(N2CCOC2=O)CC1 [Compound 119] | 10 | 50 |
| C[C@H]1OC(=O)N(C2CCN(C(=O)c3nc4c(C(F)(F)F)cc(Br)cn4c3Cl)CC2)C1=O [Compound 193, (5R)-3-(1-{[6-bromo-3-chloro-8-(trifluoromethyl)imidazo[1,2-a]pyridin-2-yl]carbonyl}-4-piperidinyl)-5-methyl-1,3-oxazolidine-2,4-dione] | 770 | 90 |
| C[C@H]1C[C@@H](N2CCOC2=O)CCN1C(=O)c1nc2c(C(F)(F)F)cc(-c3ccoc3)cn2c1Cl (racemic) [Compound 205, (±) cis-3-(1-{[3-chloro-6-(3-furanyl)-8-(trifluoromethyl)imidazo[1,2-a]pyridin-2-yl]carbonyl}-2-methyl-4-piperidinyl)-1,3-oxazolidin-2-one] | 1070 | 1760 |
| O=C(c1nc2c(C(F)(F)F)cc(-c3ccoc3)cn2c1Cl)N1CCC(N2CCNC2=O)CC1 [Compound 169, 1-(1-{[3-chloro-6-(3-furanyl)-8-(trifluoromethyl)imidazo[1,2-a]pyridin-2-yl]carbonyl}-4-piperidinyl)-2-imidazolidinone] | 1880 | 160 |
| O=C(c1nc2c(C(F)(F)F)cccn2c1Cl)N1CCC(N2CCCC2=O)CC1 [Compound 109, 1-(1-{[3-chloro-8-(trifluoromethyl)imidazo[1,2-a]pyridin-2-yl]carbonyl}-4-piperidinyl)-2-pyrrolidinone] | 38000 | 28200 |
